Measurements taken from patent US10712339B2, “Engineering of a novel breast tumor microenvironment on a microfluidic chip” (Arizona Board of Regents on behalf of Arizona State …, priority 2014, dated 2020).

Tested on: Endothelial cells (HUVECs)
Description: To study vasculogenesis and to optimize the ECM composition for endothelial cell sprouting, we first developed a microfluidic model comprised of a single culture region surrounded by the media region. This device was selected to study endothelial growth without the interference of other cell types or the stroma. Since the media channel is in a different compartment from the cell culture region, it facilitated the development of a gradient of biomolecules. To encapsulate endothelial cells fibrin was chosen, as it is known to play a major role in regulating angiogenesis in 3D ECM. Endothelial cells (HUVECs) at a cell density of 20 million cells/ml were injected into the devices and growth and maturation of vascular networks were monitored over a culture period of 5 days. We introduced vascular endothelial growth factor (VEGF) in to the culture media and assessed the subsequent effects on vasculogenesis. VEGF is known as a major growth factor secreted during cancer progression which leads to formation of new blood vessels. […] We primarily compared the diameter and branching of vascular networks and further assessed the permeability of microvessels within each experimental condition.

VEGF
permeability of microvessels (VEGF in culture media vs No VEGF control): higher permeability
structure of endothelial networks (VEGF in culture media vs No VEGF control, 5 day culture): impaired structurally
diameter of the formed vascular networks (addition of VEGF, endothelial mono-culture in single layer platform): reduced
endothelial cell morphology and intercellular connections (low and high VEGF conditions vs No VEGF control, from day 1): elongated morphology with intercellular connections
